Consider one sequence from US10774112B2, “Biomimetic peptide and biodegradable delivery platform for the treatment of angiogenesis- and lymphangiogenesis-dependent diseases” (THE JOHNS HOPKINS UNIVERSITY, priority 2013, dated 2020).

Assay [1] deals with HUVEC. As to the kind of experiment: HUVEC tube formation assay. It counts as cell-based, human. Particulars: 25 μM peptide; FIG. 3 A-B. The protocol: Tube Formation Inhibition Assays.
The compositions also were tested for their ability to inhibit tube formation, a process critical in angiogenesis. Endothelial cells spontaneously form a network of tubes when plated on extracts of extracellular matrix. This in vitro assay combines aspects of adhesion and migration and it is routinely used in angiogenesis research (Oliveira-Ferrer et al., 2008). The ability to inhibit tube formation is a comprehensive assessment of the anti-angiogenic potential. The protocol was described by Arnaoutova et al. (2009) and it consists of plating HUVEC on top of basement membrane extract. After incubation at 37° C., the cells naturally rearrange themselves in a network of tubes. Thus, 50 μL/well of Matrigel (BD Biosciences, San Jose, Calif.) was plated in a cold 96 well plate and incubated at 37° C. for 30 min for polymerization. 15,000 cells/well were added to the top of the gel and incubated in complete media in the presence or absence of peptide for 19 hours. Images were captured using the CCD Sensicam mounted on a Nikon microscope (Eclipse T-100). Assays were performed in at least two independent replicates and each replicate was performed using three experimental replicates and one image of a randomly chosen field was acquired per well.

Assay [2] relates to choroidal neovascularization. As to the kind of experiment: Laser induced choroidal neovascularization (CNV) model. The assay is classed as in vivo, mice. The protocol: Mouse Model of Choroidal Neovascularization (CNV).
Laser photocoagulation-induced rupture of Bruch's membrane was used to generate CNV. Briefly, 4-5 week old female C57BL/6J mice were anesthetized with xylazine hydrochloride (10 mg/kg) and ketamine hydrochloride (50 mg/kg) and the pupils were dilated with 1% tropicamide (Alcon Labs, Inc., Fort Worth, Tex., USA). Three burns of 532-nm diode laser photocoagulation (75 μm spot size, 0.1 s duration, 120 mW) were delivered to each retina using the slit lamp delivery system of an OcuLight GL Photocoagulator (Index, Mountain View, Calif., USA) and a hand-held cover slide as a contact lens. Burns were performed in the 9, 12 and 3 o'clock positions of the posterior pole of the retina. Production of a bubble at the time of laser photocoagulation, which indicates rupture of Bruch's membrane, is an important factor in obtaining CNV, so only burns in which a bubble was produced were included in the study. Treatments were begun seven days after laser photocoagulation and included intravitreous injections of 0.1% of SP2043 (SEQ ID NO: 1) (1 μg in a volume of 1 μL), 1% ([…] in a volume of 1 μL of SP2043 (SEQ ID NO: 1)) or vehicle under a dissecting microscope with a Harvard Pump Microinjection System (Harvard Apparatus, Holliston, Mass.) and pulled glass micropipettes. Some mice were euthanized for baseline measurement. Fourteen days after laser, the remaining mice were used to measure the amount of CNV at Bruch's membrane rupture sites. Two weeks after rupture of Bruch's membrane, mice were anesthetized and perfused with fluorescein-labeled dextran (2×10^6 average mol wt, Sigma-Aldrich, St. Louis, Mo., USA) and choroidal flat mounts were prepared as described previously. Briefly, the eyes were removed, fixed for 1 h in 10% phosphate-buffered formalin, and the cornea and lens were removed. […] Flat mounts were examined by fluorescence microscopy using an Axioskop microscope (Zeiss, Thornwood, N.Y., USA) and images were digitized using a 3 CCD color video camera (IK-TU40A, Toshiba, Tokyo, Japan) and a frame grabber. […]

Assay [3] concerns human retinal endothelial cells (HREC). The assay is described as follows: Proliferation assay (WST-1), HREC. It counts as cell-based. Particulars: FIG. 2. The protocol: A colorimetric based proliferation assay using WST-1 (Roche, 11644807001) proliferation reagent was carried out using HREC cells, HUVEC cells, and the breast cancer cells MDA-MB-231, MCF-7, and SUM149. 2000 cells/well were plated in 96-well plates and allowed to adhere overnight. On the following day, the media was exchanged with fully supplemented media containing peptides or equivalent DMSO vehicle for the controls. Three days later, the media containing the peptides was replaced with serum-free EBM-2 media containing WST-1 reagent and the plates were incubated for four hours as per the manufacturer's recommendations. Changes in color, due to the formazan dye resulted from the cleavage of the tetrazolium salt WST-1 by the mitochondrial succinate-tetrazolium reductase, were read on a Victor V fluorescence plate reader (Perkin Elmer, Mass.) by measuring the absorbance at 450 nm. Dose response curves of percent live cells (in comparison to untreated cells, but incubated in complete media with 0.2% DMSO) were created. Assays were performed in at least two independent replicates and each replicate was performed using three experimental triplicates.

For assay [4] the test system is unchanged. As to the kind of experiment: Adhesion assay (RT-CIM), HREC. The assay is classed as cell-based. Particulars: FIG. 2. How it is done:
Similar to the migration assays, the inhibition activity of the peptide in cellular adhesion was assessed using the RT-CIM technology. In this case, 25,000 cells/well were plated in 16 wells E-plates (Roche, Basel Switzerland) in the presence or absence of the peptide. The adhesion was monitored over time (3 hours) by measuring changes in the electrical impedance, which is a direct measure of the cells adhering on the electrodes. Assays were performed in at least two independent replicates and each replicate was performed using two experimental duplicates.

Assay [5] deals with MDA-MB-231 orthotopic tumors. As to the kind of experiment: MDA-MB-231 orthotopic tumor xenografts in SCID mice. The assay is classed as in vivo. Particulars: 33 days, 20 mg of SP2043/kg, intraperitoneal injection, FIG. 9. The protocol: Orthotopic breast tumors were initiated in SCID mice using human triple-negative breast cancer cells MDA-MB-231. 2×10^6 cells per 100 μL aliquot of single cell suspension were injected in the breast mammary fat pad. Tumors reached volumes of 75-100 mm^3 in approximately 14-21 days. Mice were randomized and arranged in groups (8 mice per group) with similar tumor volumes (no statistical difference among averages) and treatment was commenced. […] Tumors were measured every fourth day using calipers and the tumor volume was calculated using the formula V=ab^2/2, where “a” is the larger and “b” is the smaller diameter.

The test system of assay [6] is neovasculature in laser induced CNV. The assay is described as follows: CNV regression model. The assay is classed as in vivo, mice. Particulars: mouse eye; free peptide; FIG. 14. The protocol: Bruch's membranes of both eyes of C57BL/6J mice were ruptured with a laser after anesthetizing the mice and dilating their pupils with 1% tropicamide. Seven days later, some mice were sacrificed to establish baseline neovascularization. At that time, 1 μg of SP2043 (SEQ ID NO: 1) was administered in one eye and vehicle in the fellow eye of other mice. Seven days later, all animals were perfused with fluorescein-labeled dextran, eyes removed, the retina dissected and flatmounted after making radial cuts, and fluorescence was measured. The images were digitized using a 3-color charge-coupled device video camera and a frame grabber and the area of hypervascularization was quantified by image-analysis software.

Assay [7] concerns hepatocyte growth factor (HGF) signaling. The assay is described as follows: HGF signaling in vitro in LEC. It counts as cell-based. Particulars: FIG. 6.

Take “LRRFSTAPFAFIDINDVINF (Artificial sequence based on human Collagen Type IV protein) [SP2043]”: the HUVEC tube formation result in assay [1] is listed as “inhibit”. The “effect in combination with other anti-angiogenesis agents, such as aflibercept” value in assay [2] (laser-induced choroidal neovascularization model in mice, FIG. 28) is recorded as “increased effect”. For the same sequence, in assay [2] (mouse, FIGS. 13A-B), the “neovascularization in laser induced CNV model” value was “inhibited” and the “potency in laser induced CNV model compared with aflibercept” value was “more potently than aflibercept”. In addition, the “proliferation of HREC” value in assay [3] is “inhibit”. Besides, the “adhesion of HREC” value in assay [4] is “inhibit”. Also, the “inhibition of tumor growth” value in assay [5] is “about 82%”. In addition, in assay [6], the “regression of the neovasculature in laser induced CNV model” value was “caused regression”. Also, the “HGF signaling in LEC” value in assay [7] was “inhibit”.
